Assay results: ChEMBL document CHEMBL1150933, “Cytotoxic sterols from the soft coral Nephthea erecta” (1998)
In brackets after ≈: the same amount, converted by molar mass.

What was measured:
Type in all cases: functional
[1] = tested on: A549; experiment: Cytotoxicity against human A549 cells after 6 days by MTT assay; settings: A549, 144 h, read-out: ED50 (the source's name)
[2] = tested on: HT-29; experiment: Cytotoxicity against human HT-29 cells after 6 days by MTT assay; settings: HT-29, 144 h, read-out: ED50 (the source's name)
[3] = tested on: KB; experiment: Cytotoxicity against human KB cells after 3 days by MTT assay; settings: 72 h, read-out: ED50 (the source's name)
[4] = tested on: P388; experiment: Cytotoxicity against mouse P388 cells after 3 days by MTT assay; settings: P388, 72 h, read-out: ED50 (the source's name)

SMILES	EC50 [1]	EC50 [2]	EC50 [3]	EC50 [4]
C=C(CC[C@@H](C)[C@H]1CC[C@H]2[C@@H]3C(=O)C=C4C[C@@H](O)CC[C@]4(CO)[C@H]3CC[C@]12C)C(C)C	4.09 µg/mL (≈ 9.54 µM)	3.34 µg/mL (≈ 7.79 µM)	> 50 µg/mL	0.4 µg/mL (≈ 0.933 µM)
C=C(CC[C@@H](C)[C@H]1CC[C@H]2[C@@H]3C[C@@H](O)[C@@]4(O)C[C@@H](O)CC[C@]4(CO)[C@H]3CC[C@]12C)C(C)C	0.81 µg/mL (≈ 1.81 µM)	0.93 µg/mL (≈ 2.07 µM)	0.39 µg/mL (≈ 0.869 µM)	0.34 µg/mL (≈ 0.758 µM)
C=C(CC[C@@H](C)[C@H]1CC[C@H]2[C@@H]3CC=C4C[C@@H](O)CC[C@]4(CO)[C@H]3CC[C@]12C)C(C)C	1.76 µg/mL (≈ 4.24 µM)	1.31 µg/mL (≈ 3.16 µM)	1.1 µg/mL (≈ 2.65 µM)	0.45 µg/mL (≈ 1.09 µM)
C=C(CC[C@@H](C)[C@H]1C[C@@H](O)[C@H]2[C@@H]3CC=C4C[C@@H](O)CC[C@]4(CO)[C@H]3CC[C@@]21C)C(C)C	0.41 µg/mL (≈ 0.952 µM)	0.17 µg/mL (≈ 0.395 µM)	0.6 µg/mL (≈ 1.39 µM)	0.07 µg/mL (≈ 0.163 µM)
C=C(CC[C@@H](C)[C@H]1CC[C@H]2[C@@H]3[C@@H](OC(C)=O)C=C4C[C@@H](O)CC[C@]4(CO)[C@H]3CC[C@]12C)C(C)C	0.81 µg/mL (≈ 1.71 µM)	0.87 µg/mL (≈ 1.84 µM)	0.38 µg/mL (≈ 0.804 µM)	0.42 µg/mL (≈ 0.888 µM)
C=C(CC[C@@H](C)[C@H]1CC[C@H]2[C@@H]3[C@@H](O)C=C4C[C@@H](O)CC[C@]4(CO)[C@H]3CC[C@]12C)C(C)C	0.69 µg/mL (≈ 1.6 µM)	0.72 µg/mL (≈ 1.67 µM)	0.58 µg/mL (≈ 1.35 µM)	0.24 µg/mL (≈ 0.557 µM)
